Reference: patent publication US20180318199A1, “Pharmaceutical Composition Having Anti-Aging Properties against High-Glucose” (TAIWAN LEADER BIOTECH CORP., priority 2017, published 2018)

How the values were obtained:
SIRT-1, SIRT-3, SIRT-6 = assay: Western blot of SIRT proteins and phos-SIRT-1 in HNDFs; assay type: cell-based, human; conditions: ANM or RES + HG, 72 h
Protocol: Total cell lysate is extracted and subjected to western blot analysis to monitor SIRT-1, SIRT-3, SIRT-6 protein levels.
The protein expression levels of SIRT-1, SIRT-6, p21^CIP1, SMP30, p53, FoxO and acetylation of p53 and FoxO1 are determined by western blot analysis.
To further understand the regulation of SIRT-1 by ANM, the effect of ANM on SIRT-1 activation and protein stability is examined under hyperglycemic conditions. In FIG. 7I, cells are incubated with JNK/SAPK or p38 MAPK inhibitors SP600125 (SP, 30 μM) and SB203580 (SB, 30 μM) in the presence of HG for 72 h. The protein expression levels of phos-SIRT-1 and SIRT-1 are determined by western blotting. Results are expressed as mean±S.E.M of three independent experiments. Statistical significance is set at ^ϕP<0.05 as compared to NG vs. HG and *P<0.05 as compared to HG vs. samples. Previous studies have shown that hyperphosphorylation of SIRT-1 at serine 47 (Ser47) is correlated with enhanced endothelial senescence. In addition, persistent activation of JNK1/2 by multiple factors including hyperglycemia induces extensive SIRT-1 proteasome degradation followed by phosphorylation at Ser47. […] Therefore, it is hypothesized that ANM-mediated suppression of JNK1/2 and p38 MAPK activation may have a functional role in the stability of SIRT-1 protein.
(§1) Cells are lysed by either RIPA lysis buffer or nuclear and cytoplasmic extraction reagents (Thermo Fisher Scientific). Protein concentrations are determined by Bio-Rad protein assay reagent (Bio-Rad Laboratories, Hercules, Calif.). Equal amounts of protein samples (60 μg) are separated by 7-12% SDS-PAGE and the separated proteins are transferred onto polyvinylidene […] (PVDC) membrane overnight. The transferred protein membranes are blocked with 5% non-fat dried milk for 30 min, followed by incubation with specific primary antibodies overnight, and either horseradish peroxidase-conjugated goat anti-rabbit or anti-mouse antibodies for 2 h. The blots are detected using VL Chemi-Smart 3000 (Viogene Biotek, Sunnyvale, Calif.) with the enhanced chemiluminescence (ECL) western blotting reagent (Millipore, Billerica, Mass.).

[1] = system: SIRT-1, SIRT-3 and SIRT-6; assay: RT-PCR/Q-PCR of SIRT genes in HNDFs; assay type: cell-based, human; conditions: RES, 72 h, no HG
Source text: As shown in the figures, to determine whether ANM regulates HNDF senescence through a SIRT-1-mediated pathway, expression levels of SIRT genes SIRT-1, SIRT-3 and SIRT-6 are is examined.
Total RNA is extracted and subjected to Q-PCR analysis to monitor SIRT-1, SIRT-3 and SIRT-6 expression. Relative mRNA levels are normalized by β-actin mRNA. Previous studies have shown that exposure of endothelial cells to HG rapidly decreases levels of expression of SIRT genes.
Total RNA is extracted from cultured HNDFs using Trizol Reagent (Thermo Fisher Scientific). Q-PCR analysis is performed using Applied Biosystems detection instruments and software. Forward and reverse primers (10 μM), and the working solution SYBR green, is used as a PCR master mix, under the following conditions: 96° C. for 3 minutes followed by 40 cycles at 96° C. for 1 minute, 50° C. for 30 seconds and 72° C. for 90 seconds. GAPDH is used as an internal standard to control for variability in amplification because of differences in starting mRNA concentrations. The copy number of each transcript is calculated as the relative copy number normalized by GAPDH copy number.

wild-type C. elegans = assay: C. elegans lifespan assay; assay type: in vivo, Caenorhabditis elegans; conditions: ANM 10 μM or RES 438 μM vs control
Protocol: It has been well documented that high glucose levels decrease the life span of C. elegans by increasing ROS formation and advance glycation end-product modification of mitochondrial proteins. Therefore, it is further investigated whether ANM has a protective effect against hyperglycemia-induced oxidative stress as well as anti-aging effects. Worms are incubated with high glucose (50 mM) with or without ANM […], and controlled for life span evaluation. In FIG. 8B, effect of ANM on the life span of C. elegans under hyperglycemic condition is examined. Age synchronized L1 larvae are transfected to NGM plates which contain HG (50 mM) with or without ANM (10 μM) and worms are developed to adulthood. The survival rate is scored everyday and is expressed as a percentage of survival. […] Results are expressed as mean±S.E.M of three independent experiments. Statistical significance is set at ^ϕP<0.05 as compared to control vs. HG, *P<0.05 as compared to HG vs. HG+sample and ̂P<0.05 as compared to control vs. samples.
Control worms are treated with 0.01% DMSO. All worms are kept 20° C. to develop adulthood. After 6 days, worms are transferred to plates containing glucose are applicable. Surviving and dead animals are counted daily (starting from the first day of adulthood) until all worms had died. […] Worms suffering from internal hatch (a defect in egg-laying) and those that crawled off the NGM plate are not included in the life-span assay. During the reproductive period, adult worms are transferred to fresh NGM plates every day during the progeny production period and then every other day thereafter. Life span assay result is obtained from three independent assays.

HO-1 and NQO-1 = assay: Western blot of HO-1 and NQO-1 in HUVECs; assay type: cell-based, human; conditions: ANM 10 μM or RES 5 μM + HG
Protocol: The intracellular ROS level is quantified by utilizing DCFH-DA assay. […] However, treatment of HUVECs with ANM resulted reduced ROS levels (6.1-fold), compared with HUVECs in HG that are not treated with ANM. In addition, in FIG. 9G, western blot analysis is performed to determine the protein expression levels of HO-1 and NQO-1.
as §1

HNDFs = assay: SA-β-gal senescence assay in HG-induced HNDFs; assay type: cell-based, human; conditions: ANM 10 μM or RES + HG, 72 h
Protocol: Next, the protective effects of antcins on HG-induced HNDF senescence are examined. In FIG. 2B, cells were incubated with ANA (10 μM), ANH (10 μM) and ANM (10 μM) in the presence of HG (30 mM) for 72 h. Cellular senescence is determined by SA-β-gal activity. […] After cells are co-incubated with HG and antcins (ANA, ANH and ANM) for 72 h, senescence is measured by SA-β-gal assay.
Therefore, in order to examine whether the ROS inhibitory effect may be extended to suppress HG-induced senescence, HG-induced senescenece eliminated by ANM is examined. In FIG. 4B, HNDFs are incubated with ANM (10 μM) or NAC (100 μM) in the presence or absence of HG (30 mM) for 72 h. Cellular senescence is determined by SA-β-gal assay. […] As is shown, cells are co-incubated with HG and ANM or NAC for 72 h.
Senescence-associated β-galactosidase (SA-β-gal) activity is determined in formaldehyde-fixed histochemical staining kit according to the manufacturer's instructions (Cell Signaling Technology, Danvers, Calif.). Briefly, cells are grown in 6-well plates at a density of 5×10^4 cells/well, and incubated with HG or test samples for 48 h (HUVECs) or 72 h (HNDFs). After incubation, cells are stained with SA-β-gal staining solution at pH 6.0 overnight and then the development of blue staining is observed and photographed under a bright-field microscope (Motic Electric Group, Xiamen, P.R. China).

## Oc1ccc(C=Cc2cc(O)cc(O)c2)cc1 [RES, resveratrol, reference compound]
SIRT-1, SIRT-3, SIRT-6
  HG-induced SIRT-1 phosphorylation at Ser47: significantly attenuates
[1]
  SIRT-6 level (RT-PCR): remarkable increase
wild-type C. elegans
  life span of C. elegans under normal condition: highly comparable
HO-1 and NQO-1
  HO-1 expression in HUVECs in HG: significantly increase
HNDFs
  SA-β-gal activity, SIRT-1 siRNA transfected cells: remains partially elevated
